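Grown in 96-well plates, cells were treated for 48 hours with each compound at five concentrations. Insufficient inhibition: endpoint recorded as highest concentration tested. GI50 marks 50% less growth. At the TGI there is no net growth.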
Legend:
Assay in all cases: NCI-60 cell line screen, 48 h
RPMI-8226 leukemia = tested on: RPMI-8226 leukemia
SK-OV-3 ovarian = tested on: SK-OV-3 ovarian
SK-MEL-5 melanoma = tested on: SK-MEL-5 melanoma
SW-620 colon = tested on: SW-620 colon
NCI-H460 lung = tested on: NCI-H460 lung
K-562 leukemia = tested on: K-562 leukemia
SN12C renal = tested on: SN12C renal
NCI-H23 lung = tested on: NCI-H23 lung
T-47D breast = tested on: T-47D breast
SNB-19 CNS = tested on: SNB-19 CNS
RXF 393 renal = tested on: RXF 393 renal
MOLT-4 leukemia = tested on: MOLT-4 leukemia
HCC-2998 colon = tested on: HCC-2998 colon
SNB-75 CNS = tested on: SNB-75 CNS
SF-295 CNS = tested on: SF-295 CNS
IGROV1 ovarian = tested on: IGROV1 ovarian
TK-10 renal = tested on: TK-10 renal
OVCAR-8 ovarian = tested on: OVCAR-8 ovarian
A549 NSCLC = tested on: A549 NSCLC
ACHN renal = tested on: ACHN renal
CCRF-CEM leukemia = tested on: CCRF-CEM leukemia
HT29 colon = tested on: HT29 colon
UACC-62 melanoma = tested on: UACC-62 melanoma
MCF7 breast = tested on: MCF7 breast
MDA-MB-231 breast = tested on: MDA-MB-231 breast
NCI/ADR-RES ovarian = tested on: NCI/ADR-RES ovarian
MALME-3M melanoma = tested on: MALME-3M melanoma
OVCAR-5 ovarian = tested on: OVCAR-5 ovarian
DU-145 prostate = tested on: DU-145 prostate

O=C(CCCCCCN1CC(=O)N2[C@@H](c3cccc(Br)c3)c3[nH]c4ccccc4c3C[C@H]2C1=O)NO
TGI (RPMI-8226 leukemia): 11.6 µM | GI50 (SK-OV-3 ovarian): 3.23 µM | TGI (SK-OV-3 ovarian): 9.27 µM | GI50 (SK-MEL-5 melanoma): 2.6 µM | TGI (SK-MEL-5 melanoma): 9.06 µM | GI50 (SW-620 colon): 2.24 µM | TGI (SW-620 colon): 14.7 µM | GI50 (NCI-H460 lung): 2.43 µM | TGI (NCI-H460 lung): 11.5 µM | GI50 (K-562 leukemia): 1.37 µM | TGI (K-562 leukemia): > 16.7 µM | GI50 (SN12C renal): 3.9 µM | TGI (SN12C renal): > 16.7 µM | GI50 (NCI-H23 lung): 3.08 µM | TGI (NCI-H23 lung): 9.78 µM | GI50 (T-47D breast): 1.65 µM | TGI (T-47D breast): 12.8 µM | GI50 (SNB-19 CNS): 3.79 µM | TGI (SNB-19 CNS): > 16.7 µM | GI50 (RXF 393 renal): 1.51 µM | TGI (RXF 393 renal): 5.21 µM | GI50 (MOLT-4 leukemia): 0.933 µM | TGI (MOLT-4 leukemia): 10.4 µM | GI50 (HCC-2998 colon): 2.66 µM | TGI (HCC-2998 colon): 5.81 µM | GI50 (SNB-75 CNS): 0.707 µM | TGI (SNB-75 CNS): 9.15 µM | GI50 (SF-295 CNS): 2.57 µM | TGI (SF-295 CNS): 6.58 µM | GI50 (IGROV1 ovarian): 0.403 µM | TGI (IGROV1 ovarian): 1.11 µM | GI50 (TK-10 renal): 2.98 µM | TGI (TK-10 renal): 15.1 µM | GI50 (OVCAR-8 ovarian): 2.32 µM | TGI (OVCAR-8 ovarian): > 16.7 µM | GI50 (A549 NSCLC): 4.83 µM | TGI (A549 NSCLC): > 16.7 µM | GI50 (ACHN renal): 3.85 µM | TGI (ACHN renal): 14.9 µM | GI50 (CCRF-CEM leukemia): 0.709 µM | TGI (CCRF-CEM leukemia): > 16.7 µM | GI50 (HT29 colon): 2.23 µM | TGI (HT29 colon): > 16.7 µM | GI50 (UACC-62 melanoma): 1.78 µM | TGI (UACC-62 melanoma): 5.38 µM | GI50 (MCF7 breast): 1.88 µM | TGI (MCF7 breast): 7.19 µM | GI50 (MDA-MB-231 breast): 3.25 µM | TGI (MDA-MB-231 breast): 11.5 µM | GI50 (NCI/ADR-RES ovarian): > 16.7 µM | TGI (NCI/ADR-RES ovarian): > 16.7 µM | GI50 (MALME-3M melanoma): 0.922 µM | TGI (MALME-3M melanoma): 7.45 µM | GI50 (OVCAR-5 ovarian): 3.37 µM | TGI (OVCAR-5 ovarian): > 16.7 µM | GI50 (DU-145 prostate): 3.13 µM | TGI (DU-145 prostate): 12.3 µM

From PubChem BioAssay (NCI)
